This is an account of results in patent US7687522B2, “Substituted pyridines and pyrimidines and their use in treatment of cancer” (Amgen Inc., priority 2006, dated 2010).

The target of this assay is T1, c-Met (Homo sapiens, UniProt P08581).
T1 construct: A PCR product covering residues 1058-1365 of c-Met (c-Met kinase domain) is generated; made in house; host or cells: baculovirus-infected (insect) cells
T1 sequence (P08581 1058-1365): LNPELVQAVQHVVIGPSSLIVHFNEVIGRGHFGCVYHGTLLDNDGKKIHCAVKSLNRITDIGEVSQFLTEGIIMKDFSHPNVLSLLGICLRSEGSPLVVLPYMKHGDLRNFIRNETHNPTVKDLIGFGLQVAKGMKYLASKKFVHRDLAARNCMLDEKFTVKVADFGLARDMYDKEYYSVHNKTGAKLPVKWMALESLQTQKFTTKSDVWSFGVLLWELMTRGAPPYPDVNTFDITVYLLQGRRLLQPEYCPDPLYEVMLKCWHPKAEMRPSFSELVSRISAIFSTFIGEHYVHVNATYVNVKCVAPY
Nature of the assay: c-Met receptor assay (HTRF kinase assay with GST-cMet (P) enzyme, gastrin substrate). The class given is biochemical. How it is done: A PCR product covering residues 1058-1365 of c-Met (c-Met kinase domain) is generated as described in WO 06/116,713 the entirety of which is incorporated herein by reference.
Baculovirus cells are broken in 5× (volume/weight) of Lysis Buffer (50 mM HEPES, pH 8.0, 0.25 M NaCl, 5 mM mercaptoethanol, 10% glycerol plus Complete Protease Inhibitors (Roche (#10019600), 1 tablet per 50 mL buffer). The lysed cell suspension is centrifuged at 100,000×g (29,300 rpm) in a Beckman ultracentrifuge Ti45 rotor for 1 h. The supernatant is incubated with 10 ml of Glutathione Sepharose 4B from Amersham Biosciences (#27-4574-01). Incubation is carried out overnight in a cold room (approximately 8° C.). The resin and supernatant is poured into an appropriately sized disposable column and the flow through supernatant was collected. The resin is washed with 10 column volumes (100 mL) of Lysis Buffer. The GST-cMET is eluted with 45 mL of 10 mM Glutathione (Sigma #G-4251) in Lysis Buffer. The elution is collected as 15 mL fractions. Aliquots of the elution fractions are run on SDS PAGE (12% Tris Glycine gel, Invitrogen, #EC6005BOX). The gel is stained with 0.25% Coomassie Blue stain. Fractions with GST-cMET are concentrated with a Vivaspin 20 mL Concentrator (#VS2002; […]) to a final volume less than 2.0 ml. The concentrated GST-cMET solution is applied to a Superdex 75 16/60 column (Amersham Biosciences # 17-1068-01) equilibrated with 25 mM Tris, pH 7.5, 100 mM NaCl, 10 mM mercaptoethanol, 10% glycerol. The GST-cMET is eluted with an isocratic run of the above buffer, with the eluent collected in 1.0 mL fractions. Fractions with significant OD280 readings are run on another 12% Tris Glycine gel. The peak tubes with GST-cMET are pooled and the OD280 is read with the column buffer listed above as the blank buffer.
Phosphorylation of the purified GST-cMET is performed by incubating the protein for 3 h at RT with the following:
After incubation, the solution is concentrated in a Vivaspin 20 mL Concentrator to a volume less than 2.00 mL. The solution is applied to the same Superdex 75 16/60 column used above after re-equilibration. The GST-cMET is eluted as described above. The elution fractions corresponding to the first eluted peak on the chromatogram are run on a 12% Tris Glycine gel, as above, to identify the fractions with GST-cMET. Fractions are pooled and the OD280 is read with the column buffer used as the blank.
A Kinase reaction Buffer is prepared as follows:
When the assay is carried out, freshly add:
The HTRF buffer contains: 50 mM Tris-HCl (pH 7.5), 100 mM NaCl, 0.1% BSA, 0.05% Tween 20.5 mM EDTA Fresh add SA-APC (PJ25S Phycolink Streptavidin-Allophycocyanin Conjugate, Prozyme Inc.) and Eu-PT66 (Eu-W1024 labeled anti-phosphorotyrosine antibody PT66, AD0069, Lot 168465, Perkin-Elmer Inc.) to reach the final concentration: • 0.1 nM final Eu-PT66 • 11 nM final SA-APC Methods: 1. Dilute GST-cMet (P) enzyme in kinase buffer as follows: Prepare 8 nM GST-cMet (P) working solution (7.32 μM to 8 nM, 915 X, 10 μL to 9.15 mL). In a 96 well clear plate [Costar # 3365] add 100 μL in eleven columns, in one column add 100 μL kinase reaction buffer alone. 2. Assay plate preparation: Use Biomek FX to transfer 10 μL 8 nM GST-cMet (P) enzyme, 48.4 μL kinase reaction buffer, 1.6 μL compound (in DMSO) (Start concentration at 10 mM, 1 mM and 0.1 mM, sequential dilution 1:3 to reach 10 test points) in a 96 well costar clear plate [Costar # 3365], mix several times. Then incubate the plate at RT for 30 min. 3. Prepare Gastrin and ATP working solution in kinase reaction buffer as follows: Prepare 4 μM Gastrin and 16 μM ATP working solution
Use Biomek FX to add 20 μl ATP and Gastrin working solution to the assay plate to start reaction, incubate the plate at RT for 1 h. 4. Transfer 5 μL reaction product at the end of 1 h into 80 μL HTRF buffer in black plate [Costar # 3356], read on Discover after 30 min incubation.
For orientation: Time-resolved FRET reads energy transfer from a long-lived donor to a nearby acceptor.
For orientation: Ki means a dissociation constant, usually derived from enzyme kinetics or from competition with a known ligand. A low value points to a stronger hold on the target. In the case of `Cn1c(Nc2ccccc2)ncc(-c2ccc(Oc3ccnc(NC(=O)N4CCCC4)c3)cn2)c1=O` [Example 1, N-(4-(6-(1-methyl-6-oxo-2-(phenylamino)-1,6-dihydropyrimidin-5-yl)pyridin-3-yloxy)pyridin-2-yl)pyrrolidine-1-carboxamide], the inhibition constant Ki came out at 11 nM. The same measure for `Cn1c(Nc2ccccc2F)ncc(-c2ccc(Oc3ccnc(NC(=S)N4CCCC4)c3)cn2)c1=O` [Example 3, N-(4-(6-(2-(2-fluorophenylamino)-1-methyl-6-oxo-1,6-dihydropyrimidin-5-yl)pyridin-3-yloxy)pyridin-2-yl)pyrrolidine-1-carbothioamide]: 110 nM; for `Cn1c(Nc2ccccc2)ncc(-c2ccc(Oc3ccnc(NC(=O)N4CCOCC4)c3)cn2)c1=O` [Example 6, N-(4-(6-(1-methyl-6-oxo-2-(phenylamino)-1,6-dihydropyrimidin-5-yl)pyridin-3-yloxy)pyridin-2-yl)morpholine-4-carboxamide]: 57 nM.

The compound `CN1CCN(C(=O)Nc2cc(Oc3ccc(-c4cnc(Nc5ccccc5)n(C)c4=O)nc3)ccn2)CC1` [Example 7, 4-methyl-N-(4-(6-(1-methyl-6-oxo-2-(phenylamino)-1,6-dihydropyrimidin-5-yl)pyridin-3-yloxy)pyridin-2-yl)piperazine-1-carboxamide] gave a Ki of 87 nM. The compound `Cn1c(Nc2ccc(F)cc2)ncc(-c2ccc(Oc3ccnc(NC(=O)N4CCCC4)c3)cn2)c1=O` [Example 10, N-(4-(6-(2-(4-fluorophenylamino)-1-methyl-6-oxo-1,6-dihydropyrimidin-5-yl)pyridin-3-yloxy)pyridin-2-yl)pyrrolidine-1-carboxamide] came in with an inhibitory constant (Ki) of 6 nM. Compound `Cc1noc(-c2cccc(Nc3nccc(Oc4ccc(-c5cnc(Cc6ccccc6)n(C)c5=O)cc4F)n3)c2)n1` [Example 13, 2-benzyl-5-(3-fluoro-4-(2-(3-(3-methyl-1,2,4-oxadiazol-5-yl)phenylamino)pyrimidin-4-yloxy)phenyl)-3-methylpyrimidin-4(3H)-one] returned a Ki of over 20000 nM. With `CNc1nccc(Oc2ccc(-c3cnc(Cc4ccccc4)n(C)c3=O)cc2F)n1` [Example 14, 2-benzyl-5-(3-fluoro-4-(2-(methylamino)pyrimidin-4-yloxy)phenyl)-3-methylpyrimidin-4(3H)-one], the inhibition constant (Ki) was found to be 2340 nM. `CCn1c(Nc2ccc(F)cc2)ncc(-c2ccc(Oc3ccnc(NC(=O)N4CCC4)c3)c(F)c2)c1=O` [Example 21, N-(4-(4-(1-ethyl-2-(4-fluorophenylamino)-6-oxo-1,6-dihydropyrimidin-5-yl)-2-fluorophenoxy)pyridin-2-yl)azetidine-1-carboxamide]: the affinity corresponds to a Ki of 12 nM. In the case of `Cn1c(Nc2cccc(F)c2)ncc(-c2ccc(Oc3ccnc(NC(=O)N4CCCC4)c3)cn2)c1=O` [Example 25, N-(4-(6-(2-(3-fluorophenylamino)-1-methyl-6-oxo-1,6-dihydropyrimidin-5-yl)pyridin-3-yloxy)pyridin-2-yl)pyrrolidine-1-carboxamide], the Ki was found to be 11 nM. `Cn1c(Nc2cccc(F)c2)ncc(-c2ccc(Oc3ccnc(NC(=S)N4CCCC4)c3)cn2)c1=O` [Example 26, N-(4-(6-(2-(3-fluorophenylamino)-1-methyl-6-oxo-1,6-dihydropyrimidin-5-yl)pyridin-3-yloxy)pyridin-2-yl)pyrrolidine-1-carbothioamide] came in with a Ki of 30 nM.
